# Where two headings read alike, the source gives them in different places.
# How the values were obtained:
# Dd2 = test: Rate of killing assay by flow cytometry; format: cell-based, Plasmodium falciparum; details: 10 × EC50 for 12, 24, or 48 h
# Procedure: After a 24 h lag phase, only 10^0.64 parasites are killed within the first replication cycle (48 h). […] We also examined the in vitro killing rate in Dd2 through flow cytometric analysis.
# Following the previously described protocol (Collins et al., 2021), compound or vehicle control was added to Dd2 culture in the majority ring stage and incubated for either 12, 24, or 48 h prior to compound removal. Samples were then taken at the time of compound removal, and every 24 h for 6 days for flow analysis with SYBR Green I and Mitotracker Deep red FM. Analysis was performed in Flowjo version 10 with gating using DHA, vehicle, no mitotracker, no staining, and uninfected RBC controls. Cells designated as SYBR positive and mitotracker positive were gated as “viable parasites” and graphed using Graphpad Prism version 10. […]
# [1] = system: human HepG2 hepatoma cells; test: cells; format: cell-based; details: for EC50: Homo sapiens
# Procedure: The antiplasmodial activity of these analogs was assessed in P. falciparum asexual blood stage using a SYBR Green I-based assay. Compounds were tested in both the multidrug resistant line Dd2, and the chloroquine-sensitive line 3D7, to probe any potential for preexisting resistance. […] These methyldeoxaphomin analogs were also cross-screened for cytotoxicity in the human cell line HepG2 to determine their selectivity for the Plasmodium parasite. […] This effect was maintained with analog NPDG-F where both R1 and R2 were substituted with OH groups. […] In addition, the hydroxyl group at carbon 7 seems to be critical for function as a drastic loss of potency was found in NPDG-D as compared to B and C. […]
# Cytotoxicity was assessed using an MTS (3-(4,5-Dimethylthiazol-2-yl)-5-(3-carboxymethoxyphenyl)-2-(4-sulfophenyl)-2H-tetrazolium) absorbance assay with human HepG2 hepatoma cells. Cells were maintained in MEM supplemented with 10%FBS, 1% Antibiotic/Antimycotic, 1 mM sodium pyruvate, and 0.15% sodium bicarbonate in a 5 % CO2, 95% air environment at 37°C. For the assay cells were seeded at a density of 2,250 cells per well on 384-well microtiter plates 24 h prior to compound addition. Following a 48-h incubation with compounds, MTS solution was added to wells and absorbance was read after 2-4 h on a Synergy Neo2 multimode reader (BioTek Winsooki, VT). Compound dose response curves and EC50 determination was performed using CDD Vault normalized to 5% triton and vehicle controls. […]
# Dd2-Pol δ parent line = test: Resistant parasite phenotyping and cross resistance, SYBR green I EC50 assay, parent line; format: cell-based, Plasmodium falciparum; details: Plasmodium falciparum; strain Dd2-Pol δ -parent; read-out: EC50 (mean ± SEM)
# Procedure: Cloning by limiting dilution was then performed to isolate individual lines from the bulk population. Due to the multiple mutations identified in the first biological replicate, we isolated four clones from this bulk culture as compared to two clones each from the second and third replicates. These clones were phenotyped via a SYBR green I-based dose–response assay (Table 2 and Fig. 2B). […] The DNA of these clones was then extracted and subjected to whole-genome sequencing.
# Resistant parasite phenotyping and cross resistance measurement
# The EC50 assay was performed at 1% parasitemia, 1% hematocrit with SYBR green I in 96-well plates. The highest final concentration of the methyldeoxaphomin NPDG-F was set at 100 μM. Briefly, the compound was subjected to a 3-fold serial dilution with ten dilution points. Three technical replicates were set up at each dilution point. The Dd2-Pol δ parent line and the resistant parasites at 2% hematocrit and 1% parasitemia were added to the drug media at 1:1 ratio. The plate was incubated at 37°C for 72 hours in a chamber filled with a hypoxic gas mixture (3% oxygen, 5% carbon dioxide, and 92% nitrogen). After incubation, the cells were lysis with lysis buffer (20 mM Tris-HCL, 0.08% saponin, 5 mM EDTA, and 0.8% Triton X-100) containing SYBR green I (10,000X, Thermo Fisher, cat # S7563) overnight. Fluorescence was measured at 485nm excitation and 530nm emission using a PHERAstar FSX plate reader (BMG Labtech, Germany). Dose response curves were graphed with Prism 9 Version 9.5.1.
# 3D structural analysis of the mutations and docking studies
# The crystal structure of PfActin1 with accession number 6TU4 (resolution 2.60 Ang) (Vahokoski et al., 2022) was obtained from the Protein Data Bank (PDB). This structure of PfActin1 contains ligands Jasplakinolide and ADP with a coordinating magnesium ion.
# Only chain A was used for the docking experiment. […] Schrodinger maestro software (Schrödinger, LLC) was used to build NPDG-F with the proper stereochemistry using the x-ray structure determined for analog NPDG-A (vide supra). […]
structure (smiles),measurement,setting,value
C=C1C(C)C2C(Cc3ccccc3)NC(=O)C23C(=O)C=CC(O)C(O)C(C)CC(C)CC=CC3C1O (stereo not shown) [Methyldeoxaphomin NPDG-F],in vitro killing rate phenotype,Dd2,delayed inhibition phenotype and a cytocidal killing profile
same,cytotoxicity in HepG2 at the highest concentration tested,[1]; 25 µM,no signs of cytotoxicity
same,Selectivity Index (SI),"[1]; HepG2 EC50/(mean of Dd2 EC50, 3D7 EC50)",> 60
same,EC50,"[1]; HepG2, 48 h, means from triplicate experiments ± SEM, 48-h incubation, read-out: HepG2 EC50",> 25 µM
same,EC50,"[1]; HepG2, average ± SEM of three replicates, read-out: HepG2: Average EC50",> 25 µM
same,EC50,"[1]; HepG2, individual replicates, read-out: HepG2: EC50",> 25 µM
same,EC50,Dd2-Pol δ parent line,3.43 µM

# — paper PMC11874377, “Fungal-derived methyldeoxaphomins target Plasmodium falciparum segregation through the inhibition of PfActin1” (Proceedings of the National Academy of Sciences of the …, 2025)
